For series [1], the system named is Candida albicans. Kind of series: Antifungal activity against Candida albicans C697 infected in normal mouse assessed as increase of host survival at 100 mg/kg, ip measured for 4 days. The series is classed as functional. As to conditions: 96 h, route intraperitoneal.
For series [2], the system named is Candida albicans. Kind of series: Antifungal activity against Candida albicans C697 infected in immune compromised mouse assessed as increase of host survival at 100 mg/kg, ip measured for 4 days. In kind it is functional. As to conditions: 96 h, route intraperitoneal.
Series [3] concerns Candida albicans. Kind of series: Antifungal activity against Candida albicans C697 infected in immune compromised mouse assessed as increase of host survival at 5 mg/kg, ip measured for 4 days. The series is classed as functional. As to conditions: 96 h, route intraperitoneal.
The subject of series [4] is Candida albicans. The series can be described thus: Antifungal activity against Candida albicans C697 infected in normal mouse assessed as reduction of fungal burden in kidney at 5 mg/kg, ip. The series is classed as functional, organism-based. More on the design: dose 5 mg/kg.
Series [5] relates to Candida albicans. The series can be described thus: Antifungal activity against Candida albicans C697 infected in normal mouse assessed as increase of host survival at 5 mg/kg, ip measured for 4 days. In kind it is functional. Particulars: 96 h, route intraperitoneal.
In series [6] the test system is Candida albicans. Kind of series: Antifungal activity against Candida albicans C697 infected in immune compromised mouse assessed as reduction of fungal burden in kidney at 5 mg/kg, ip. The series is classed as functional, organism-based. More on the design: dose 5 mg/kg.
The subject of the next series is Nakaseomyces glabratus. The series can be described thus: Antifungal activity against Candida glabrata C624 by broth dilution method. The series is classed as functional. Particulars: read-out: MIC100. For orientation: In broth dilution the organism is exposed to a series of concentrations in liquid medium.
For another series, the target named is T1, Beta-1,3-glucan synthase (Candida albicans, UniProt O13383).
T1 sequence (O13383 whole entry): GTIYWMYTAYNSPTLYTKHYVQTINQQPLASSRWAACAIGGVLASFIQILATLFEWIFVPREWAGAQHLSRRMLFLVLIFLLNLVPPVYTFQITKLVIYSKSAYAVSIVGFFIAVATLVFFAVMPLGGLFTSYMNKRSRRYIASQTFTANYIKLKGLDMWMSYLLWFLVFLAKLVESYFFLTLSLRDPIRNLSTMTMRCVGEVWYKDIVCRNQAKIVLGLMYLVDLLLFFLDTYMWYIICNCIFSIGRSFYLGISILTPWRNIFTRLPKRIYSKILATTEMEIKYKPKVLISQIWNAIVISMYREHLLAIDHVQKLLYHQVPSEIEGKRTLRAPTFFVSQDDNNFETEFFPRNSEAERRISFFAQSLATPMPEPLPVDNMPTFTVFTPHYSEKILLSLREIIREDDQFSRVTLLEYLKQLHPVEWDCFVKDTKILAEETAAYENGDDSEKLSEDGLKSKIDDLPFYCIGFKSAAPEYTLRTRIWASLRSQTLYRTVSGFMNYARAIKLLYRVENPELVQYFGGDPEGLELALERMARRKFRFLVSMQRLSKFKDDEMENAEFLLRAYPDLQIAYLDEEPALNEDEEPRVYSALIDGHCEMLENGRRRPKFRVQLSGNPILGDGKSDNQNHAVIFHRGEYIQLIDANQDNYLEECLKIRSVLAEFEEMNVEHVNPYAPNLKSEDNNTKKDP
The series can be described thus: Inhibition of 1,3-beta-D-glucan synthase in Candida albicans BWP17 membranes. The series is classed as cell membranes.

Series [7] has as its system Candida albicans. The series can be described thus: Antifungal activity against Candida albicans C693 by broth dilution method. In kind it is functional. As to conditions: read-out: MIC100.
A further series relates to Rattus norvegicus. Kind of series: (§1) AUC (0 to 6 hrs) in rat at 10 mg/kg, po. In kind it is ADME, organism-based, Plasma. Further details: time < 6 hr, dose 10 mg/kg, route oral. As to conditions: in vivo, 6 h, BLD = below limit of detection.
Series [8] can be described thus: Cmax in rat at 10 mg/kg, po. The series is classed as ADME, organism-based. More on the design: dose 10 mg/kg, route oral. Particulars: in vivo.
Series [9] is described as follows: as §1. The series is classed as ADME, organism-based, Plasma. Further details: time < 6 hr, dose 10 mg/kg, route oral. Particulars: plasma.
Series [10] concerns Aspergillus fumigatus. Kind of series: Antifungal activity against Aspergillus fumigatus ND158 by broth dilution method. The series is classed as functional. As to conditions: read-out: MEC.
Series [11] deals with Candida albicans. The series can be described thus: Antifungal activity against Candida albicans C697 infected in immune compromised mouse assessed as reduction of fungal burden in kidney at 100 mg/kg, ip. In kind it is functional, organism-based. More on the design: dose 100 mg/kg.
Series [12] relates to Aspergillus fumigatus. The series can be described thus: Induction of morphological changes in Aspergillus fumigatus ND158 assessed as induction of truncated and highly branched hyphae. In kind it is functional, organism-based.
Series [13] deals with Candida albicans. The series can be described thus: Antifungal activity against Candida albicans C697 infected in normal mouse assessed as reduction of fungal burden in kidney at 100 mg/kg, ip. The series is classed as functional, organism-based. More on the design: dose 100 mg/kg.

The values below come from ChEMBL document CHEMBL2057100, “The optimization of pyridazinone series of glucan synthase inhibitors” (Bioorg Med Chem Lett, 2012).

Each structure is given as a SMILES string. Values after ≈ are worked out from the molar mass of the structure shown. Active and inactive are the calls of the source. No cut-off for these calls is given here.

With `Cc1cc(CS(=O)(=O)N2CCN(c3cnn(-c4cccc(Cl)c4)c(=O)c3OCC3(C)CC3)CC2)ccc1N` [listing 1 of 2 here], the survival at 100 mg/kg in the series with Candida albicans [1] and in the series with Candida albicans [2] was 100% each time.
`CC[C@H](C)C[C@H](C)CCCCCCCCC(=O)N[C@H]1C[C@@H](O)[C@@H](NCCN)NC(=O)[C@@H]2[C@@H](O)CCN2C(=O)[C@H]([C@H](O)CCN)NC(=O)[C@H]([C@H](O)[C@@H](O)c2ccc(O)cc2)NC(=O)[C@@H]2C[C@@H](O)CN2C(=O)[C@H]([C@@H](C)O)NC1=O` [CASPOFUNGIN]: the survival at 5 mg/kg with Candida albicans [3] and in the series on Candida albicans [5] was 100% each time. The outcome in the series with Candida albicans [4] and in the series on Candida albicans [6] was Active.
Consider `O=c1c(OC2CCCC2)c(N2CCN(S(=O)(=O)Cc3cccc(O)c3)CC2)cnn1-c1cc(F)cc(F)c1`, for which the MIC with Nakaseomyces glabratus turned out to be 0.26 µg/mL (≈ 0.476 µM); with Candida albicans [7], 2.1 µg/mL (≈ 3.84 µM). Besides, the 50% inhibitory concentration (IC50) (in general, the concentration needed to halve the response being measured) against Beta-1,3-glucan synthase was 91.5 nM. The AUC result in the series on Rattus norvegicus is recorded as “BLD”.
Regarding `CC1(COc2c(N3CCN(S(=O)(=O)Cc4ccc(N)c(C(F)(F)F)c4)CC3)cnn(-c3cccc(Cl)c3)c2=O)CC1`, the figures for the MIC with Nakaseomyces glabratus and in the series with Candida albicans [7] were 0.52 µg/mL (≈ 0.85 µM) and more than 33 µg/mL, respectively. The same molecule had an IC50 on Beta-1,3-glucan synthase of 637 nM. In [8], the highest level (Cmax) was 440 ng/mL. The exposure AUC(0-t) (as a rule, the area under the concentration-time curve up to a stated or last time point) at 6 h in series [9] turned out to be 640 ng·h/mL. In addition, the minimal effective concentration in the series on Aspergillus fumigatus [10] was more than 33 µg/mL.
In the case of `CC1(COc2c(N3CCN(S(=O)(=O)Cc4ccc(N)nc4)CC3)cnn(-c3cccc(Cl)c3)c2=O)CC1`, the MIC stood at 0.06 µg/mL (≈ 0.11 µM) with Nakaseomyces glabratus and 2.08 µg/mL (≈ 3.82 µM) in the series with Candida albicans [7]. Also, the half-maximal inhibitory concentration (IC50) against Beta-1,3-glucan synthase is 91.7 nM. Also, in [8], the peak level (Cmax) was 1000 ng/mL. Moreover, the area under the curve AUC(0-t) at 6 h in series [9] stood at 3100 ng·h/mL. The minimal effective concentration in the series on Aspergillus fumigatus [10] turned out to be 8.4 µg/mL.
Regarding `CC1(COc2c(N3CCN(S(=O)(=O)Cc4ccc(N)cc4)CC3)cnn(-c3cccc(Cl)c3)c2=O)CC1`, the MIC in the series on Nakaseomyces glabratus came out at 0.26 µg/mL (≈ 0.478 µM); with Candida albicans [7], 1.04 µg/mL (≈ 1.91 µM). Half-maximal inhibition on Beta-1,3-glucan synthase (IC50) was put at 110 nM. Moreover, the Cmax (in general, the peak of the concentration-time curve) in [8] was 1900 ng/mL. In [9], this molecule showed an area under the curve AUC(0-t) at 6 h of 8100 ng·h/mL. In addition, in the series on Aspergillus fumigatus [10], the minimal effective concentration was found to be 4.2 µg/mL.
`CCc1cc(CS(=O)(=O)N2CCN(c3cnn(-c4cccc(Cl)c4)c(=O)c3OCC3(C)CC3)CC2)ccc1N`: the MIC in the series with Nakaseomyces glabratus was 0.13 µg/mL (≈ 0.227 µM); with Candida albicans [7], 4.2 µg/mL (≈ 7.34 µM). Also, the half-inhibitory concentration (IC50) at Beta-1,3-glucan synthase was 315 nM. Besides, the Cmax in series [8] was 2300 ng/mL. The molecule also showed an AUC(0-t) at 6 h in series [9] of 9400 ng·h/mL. Moreover, the minimal effective concentration in the series on Aspergillus fumigatus [10] was found to be 4.2 µg/mL.
With `Cc1cc(CS(=O)(=O)N2CCN(c3cnn(-c4cccc(Cl)c4)c(=O)c3OCC3(C)CC3)CC2)ccc1N` [listing 2 of 2 here], the result with Candida albicans [11], in the series on Aspergillus fumigatus [12] and in the series with Candida albicans [13] was Active.
